Data reported in patent publication US20080171729A1, “Use Of A Steroid For Enhancement Of Skin Permeability” (Novartis AG, priority 2004, published 2008).

Experiment: Skin penetration/permeation assay in static Franz-type diffusion cells, untreated or corticosteroid pre-treated split-thickness skin
Assay type: in vitro ADME, domestic pigs
Procedure: Three young, male castrated domestic pigs with body weights of approximately 15 kg are used as skin donors. The animals are obtained from a local breeder and maintained under standardized conditions (22±1°, 55±5% relative humidity, 10 changes of fresh air/hour, 12 hours day/12 hours night cycle). After a settling-in period of 7 days the pigs are treated topically on test areas on the dorsolateral back • with CS solutions in EtOH/propylene glycol (3+7, v/v) as a solvent, and • contra-laterally with solvent alone, twice daily for 5 days. HC (Sigma) at 1.0%, MOM (Sequoia Research Products) at 0.1% and CLO (Sigma) at 0.05% are used as CS. The CS-samples and solvent alone are applied in volumes of 50 μl to skin areas of 3.5×6.5 cm each. All three CS and solvent alone are applied to all animals. 16 hours after the last application the animals are killed and the treated skin samples are dissected. Full-thickness skin samples are dissected from vehicle- and CS-treated sites and cut into 0.4 mm split-thickness skin samples with a dermatome (Aesculap®). The samples include the epidermal layers and the superficial part of the dermis but no deep dermal layers and no subcutaneous fat. […] Schmook F B, Stütz A, Reinhardt J, Skin Pharmacol 1993; 6: 116-124. PBS/EtOH 3:1 is used as receptor phase. All experiments are performed at 32° in triplicates for 48 hours. Test compounds are applied to the epidermal side of the skin samples in their marketed formulations, i.e. Elidel® 1% cream (pimecrolimus) and Protopic® 0.1% ointment (tacrolimus), each in amounts of 300 mg. Samples of 100 μl are taken from the receptor phase at 5 time points during the 48-hours experiment and replaced by fresh receptor fluid. After addition of an internal standard (ASD732, see e.g. EP569337) the samples are directly analyzed by RPLC using MS-based detection. […] Specimens from the stripped skin are taken with a biopsy punch, weighed and then homogenized in 0.1 M sodium phosphate buffer, pH 7. Following addition of an internal standard (ASD732) and buffer of pH 10 to the homogenates, extraction is performed with tert-butyl methylether. Solvent from each extract obtained is evaporated, each residue obtained is redissolved and subjected to analysis by RPLC using MS-based detection. Receptor fluid samples are analyzed by RP-HPLC with MS detection in ESI positive mode (LC-MS/MS analysis). The MS/MS mode is used to increase selectivity. LC-MS/MS analysis is carried out with an Agilent 1100 Series Capillary LC System coupled to a Finnigan LCQ mass spectrometer. A Phenomenex Luna C18(2) column (3 μm, 100×2 mm) equipped with a precolumn is used and eluted isocratically with a flow rate of 100 μl/minute at 60°. The effluent is delivered unsplit to the ESI ion-source. Under the chromatographic conditions used, all compounds tested yield a strong sodium adduct. For MS/MS parent ions are selected. The quantification of the parent ions is based on the area ratio of the fragment ions to the fragment ion of the internal standard.

[1] = pre-treated skin compared with untreated skin

Row | permeation rate of tacrolimus in comparison with pimecrolimus, times higher (CLO-pretreated skin) | permeation rate of tacrolimus in comparison with pimecrolimus, times higher (HC-pre-treated skin) | permeation rate of tacrolimus in comparison with pimecrolimus, times higher (MOM-pre-treated skin) | permeation rate increased by factors (corticosteroid pretreated samples (range over HC, MOM, CLO) compared with untreated skin) | skin penetration (skin concentration) enhanced, in words [1] | permeation rate of tacrolimus in comparison with pimecrolimus, times higher (untreated skin) | permeation rate increased by factor (CLO pre-treatment compared with untreated skin) | permeation rate increased by factor (HC-pre-treatment compared with untreated skin) | permeation rate increased by factor (MOM pre-treatment compared with untreated skin) | skin penetration (skin concentration) enhanced [1] | SMILES
1 | 3.5 | 5.9 | 7.1 | 1.3-1.9 | not significantly | 11.2 | – | – | – | – | C=CC[C@@H]1/C=C(\C)C[C@H](C)C[C@H](OC)[C@H]2O[C@@](O)(C(=O)C(=O)N3CCCC[C@H]3C(=O)O[C@H](/C(C)=C/[C@@H]3CC[C@H](O)[C@H](OC)C3)[C@H](C)[C@@H](O)CC1=O)[C@H](C)C[C@@H]2OC [tacrolimus]
2 | – | – | – | – | – | – | 4.1 | 3.8 | 2.9 | at least 10% | CC[C@@H]1/C=C(\C)C[C@H](C)C[C@H](OC)[C@H]2O[C@@](O)(C(=O)C(=O)N3CCCC[C@H]3C(=O)O[C@H](/C(C)=C/[C@@H]3CC[C@H](Cl)[C@H](OC)C3)[C@H](C)[C@@H](O)CC1=O)[C@H](C)C[C@@H]2OC [pimecrolimus]
